The values that follow come from patent US8143304B2, “(3-amino-1,2,3,4-tetrahydro-9 H-carbazol-9-yl)-acetic acid derivatives” (Actelion Pharmaceutical Ltd., priority 2006, dated 2012).

For this experiment, the target named is T1, hCRTH2 receptor (Homo sapiens, UniProt Q9Y5Y4).
T1 construct: expressed in transfected cells; host or cells: clonal HEK 293 cell line (membrane preparation)
T1 sequence (Q9Y5Y4 1-395): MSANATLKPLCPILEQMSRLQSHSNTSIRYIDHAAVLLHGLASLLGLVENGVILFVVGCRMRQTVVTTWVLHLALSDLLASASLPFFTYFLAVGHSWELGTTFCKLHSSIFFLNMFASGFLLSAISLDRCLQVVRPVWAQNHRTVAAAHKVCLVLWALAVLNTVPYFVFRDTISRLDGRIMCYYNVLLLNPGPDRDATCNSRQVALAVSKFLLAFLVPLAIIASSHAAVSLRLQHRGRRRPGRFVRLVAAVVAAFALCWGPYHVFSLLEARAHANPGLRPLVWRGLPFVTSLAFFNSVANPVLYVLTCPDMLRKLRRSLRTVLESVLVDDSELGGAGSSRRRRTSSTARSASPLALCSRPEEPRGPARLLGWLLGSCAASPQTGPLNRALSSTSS
The experiment is described as follows: hCRTH2 receptor membranes radioligand binding assay ({3H}-PGD2). The conditions noted are these: {3H}-PGD2 2.5 nM, membranes of HEK 293 cells expressing recombinant hCRTH2 receptor; read-out: hCRTH2 Bdg IC50. On the procedure:
The biological effect of such compounds may be tested in a variety of in vitro, ex vivo and in vivo assays.
Biological Assays: Preparation of hCRTH2 Receptor Membranes and Radioligand Binding Assay:
Cells are detached from culture plates in 5 ml buffer A per plate (5 mM Tris, pH 7.4, 1 mM MgCl2, 0.1 mM PMSF, 0.1 mM phenanthroline) using a police rubber and transferred into centrifugation tubes and frozen at −80° C. After thawing, the cells are centrifuged at 500 g for 5 min and then resuspended in buffer A. Cells are then fragmented by homogenization with a Polytron cell homogenizer for 30 s. The membrane fragments are collected by centrifugation at 3000 g for 40 min and resuspended in buffer B (50 mM Tris, pH 7.4, 25 mM MgCl2, 250 mM saccharose) and aliquots are stored at […].
Binding assay is performed in a total volume of 250 μl. […] For unspecific binding, PGD2 is added to the reaction mixture at 1 μM final concentration. This binding assay mix is incubated at rt for 90 min and then filtered through a GF/C filter plate. The filter is washed three times with ice cold binding buffer C. Then, Microscint-40 (Packard, 40 μl/well) is added and the receptor bound radioactivity is quantified by scintillation counting in a “TopCount” benchtop microplate scintillation counter (Packard).

As a reminder, the IC50 is the point on the concentration scale where inhibition reaches its midpoint. As for `CN(C(=O)COCc1ccccc1)[C@H]1CCc2c(c3cc(F)ccc3n2CC(=O)O)C1` [(3S)-{3-[(2-Benzyloxy-acetyl)-methyl-amino]-6-fluoro-1,2,3,4-tetrahydro-9H-carbazol-9-yl}-acetic acid], the half-maximal inhibitory concentration (IC50) turned out to be 60 nM.
